Values after ≈ are worked out from the molar mass of the structure shown.
Columns and labels:
Experiment in all cases: microbe, parasite or virus in culture
Set-up in all cases: CLSI broth microdilution MIC in LB, lowest concentration with no visible growth
E. coli ZJ487 (NDM-1) = tested on: T1, E. coli ZJ487 (NDM-1); conditions: Escherichia coli; antibiotic alone; read-out: MIC (μg/mL) Alone
T1 construct: ZJ487 (NDM-1)
Experimental: (§1) MIC values were determined according to the broth microdilution guidelines of the Clinical and Laboratory Standards Institute (CLSI). After the tested strains were diluted with LB to a final concentration of 5×10^5 CFUs/mL, various concentrations of meropenem (0-256 μg/mL) and increasing concentrations of inhibitors (0-64 μg/mL) were added to the sterile 96-well plate, and further incubated for 18-24 h at 37 °C. The lowest concentration with no visible growth was considered as the MIC value. The synergistic effect of antibiotics and inhibitors was assessed by determining the fractional inhibitory concentration (FIC) index values according to the formula: FICI = (MIC of inhibitors in combination/MIC of inhibitors) + (MIC of antibiotics in combination/MIC of antibiotics).

E. cloacae 20712 (VIM-1) = tested on: T2, E. cloacae 20712 (VIM-1); conditions: Enterobacter cloacae; antibiotic alone; read-out: MIC (μg/mL) Alone
T2 construct: 20712 (VIM-1)
Experimental: as §1

E. coli ATCC 25922 = tested on: T3, E. coli ATCC 25922; conditions: Escherichia coli, ATCC25922; antibiotic alone; read-out: MIC (μg/mL) Alone
T3 construct: ATCC 25922
Experimental: (§2) MIC values were determined according to the broth microdilution guidelines of the Clinical and Laboratory Standards Institute (CLSI). After the tested strains were diluted with LB to a final concentration of 5×10^5 CFUs/mL, various concentrations of meropenem (0-256 μg/mL) and increasing concentrations of inhibitors (0-64 μg/mL) were added to the sterile 96-well plate, and further incubated for 18-24 h at 37 °C. The lowest concentration with no visible growth was considered as the MIC value.

E. coli 2Z69 (NDM-5) = tested on: T4, E. coli 2Z69 (NDM-5); conditions: Escherichia coli; antibiotic alone; read-out: MIC (μg/mL) Alone
T4 construct: 2Z69 (NDM-5)
Experimental: as §1

E. coli E1 (NDM-1) = tested on: T5, E. coli E1 (NDM-1); conditions: Escherichia coli; antibiotic alone; read-out: MIC (μg/mL) Alone
T5 construct: E1 (NDM-1)
Experimental: as §2

E. coli E4 (NDM-5) = tested on: T6, E. coli E4 (NDM-5); conditions: Escherichia coli; antibiotic alone; read-out: MIC (μg/mL) Alone
T6 construct: E4 (NDM-5)
Experimental: as §1

[1] = tested on: T7, K. pneumoniae QD-KP3 (NDM-1); conditions: Klebsiella pneumoniae; antibiotic alone; read-out: MIC (μg/mL) Alone
T7 construct: QD-KP3 (NDM-1)
Experimental: as §1

[2] = tested on: T8, K. pneumoniae QD-KP2 (NDM-1); conditions: Klebsiella pneumoniae; antibiotic alone; read-out: MIC (μg/mL) Alone
T8 construct: QD-KP2 (NDM-1)
Experimental: as §2

E. cloacae 20710 (VIM-1) = tested on: T9, E. cloacae 20710 (VIM-1); conditions: Enterobacter cloacae; antibiotic alone; read-out: MIC (μg/mL) Alone
T9 construct: 20710 (VIM-1)
Experimental: as §1

[3] = tested on: T10, E. coli BL21 (pET28a-SP-NDM-1); conditions: Escherichia coli, read-out: MIC (μg/mL) Alone
T10 construct: BL21 (pET28a-SP-NDM-1)
Experimental: as §1

E. coli ZC-YN3 (NDM-1) = tested on: T11, E. coli ZC-YN3 (NDM-1); conditions: Escherichia coli; antibiotic alone; read-out: MIC (μg/mL) Alone
T11 construct: ZC-YN3 (NDM-1)
Experimental: as §1

[4] = tested on: T12, K. pneumoniae QD-KP1 (NDM-1); conditions: Klebsiella pneumoniae; antibiotic alone; read-out: MIC (μg/mL) Alone
T12 construct: QD-KP1 (NDM-1)
Experimental: as §2

E. coli 2Z49 (NDM-5) = tested on: T13, E. coli 2Z49 (NDM-5); conditions: Escherichia coli; antibiotic alone; read-out: MIC (μg/mL) Alone
T13 construct: 2Z49 (NDM-5)
Experimental: as §2

E. coli E2 (NDM-9) = tested on: T14, E. coli E2 (NDM-9); conditions: Escherichia coli; antibiotic alone; read-out: MIC (μg/mL) Alone
T14 construct: E2 (NDM-9)
Experimental: as §1

E. coli ZC-YN7 (NDM-9) = tested on: T15, E. coli ZC-YN7 (NDM-9); conditions: Escherichia coli; antibiotic alone; read-out: MIC (μg/mL) Alone
T15 construct: ZC-YN7 (NDM-9)
Experimental: as §1

E. coli D3 (NDM-1) = tested on: T16, E. coli D3 (NDM-1); conditions: Escherichia coli; antibiotic alone; read-out: MIC (μg/mL) Alone
T16 construct: D3 (NDM-1)
Experimental: as §1

**Q.** Which MIC (E. coli ZJ487 (NDM-1)) does the source give for `CNC(C)[C@@H]1CC[C@@H](N)[C@@H](O[C@H]2[C@H](O)[C@@H](O[C@H]3OC[C@](C)(O)[C@H](NC)[C@H]3O)[C@H](N)C[C@@H]2N)O1` (stereo partly drawn) [Gentamicin] here?
**A.** 341 ± 121 µg/mL (≈ 715 µM)

**Q.** For `CN(C)[C@@H]1C(O)=C(C(N)=O)C(=O)[C@@]2(O)C(O)=C3C(=O)c4c(O)cccc4[C@@](C)(O)[C@H]3C[C@@H]12` [Tetracycline], which MIC (E. coli ZJ487 (NDM-1)) is on record?
**A.** 213 ± 60.3 µg/mL (≈ 480 µM)

**Q.** `O=C(N[C@H](CO)[C@H](O)c1ccc([N+](=O)[O-])cc1)C(Cl)Cl` [Chloramphenicol] was tested. Which MIC (E. coli ZJ487 (NDM-1)) did it give?
**A.** 8 µg/mL (≈ 24.8 µM)

**Q.** How did the MIC (E. coli ZJ487 (NDM-1)) turn out when `CC1(C)S[C@@H]2[C@H](NC(=O)[C@H](N)c3ccc(O)cc3)C(=O)N2[C@H]1C(=O)O` [Amoxicillin] was run?
**A.** 512 µg/mL (≈ 1400 µM)

**Q.** How did the MIC (E. coli ZJ487 (NDM-1)) turn out when `C[C@@H](O)[C@H]1C(=O)N2C(C(=O)O)=C(SCCNC=N)C[C@H]12` [Imipenem] was run?
**A.** 13.3 ± 3.77 µg/mL (≈ 44.5 µM)

**Q.** With `C[C@@H](O)[C@H]1C(=O)N2C(C(=O)O)=C(S[C@@H]3CN[C@H](C(=O)N(C)C)C3)[C@H](C)[C@H]12` [Meropenem] as the compound, how does the MIC (E. cloacae 20712 (VIM-1)) read?
**A.** 32 µg/mL (≈ 83.4 µM)

**Q.** And the MIC (E. coli ATCC 25922)?
**A.** 0.03 µg/mL (≈ 0.0782 µM)

**Q.** What about the MIC (E. coli 2Z69 (NDM-5)) of the same compound?
**A.** 32 µg/mL (≈ 83.4 µM)

**Q.** And the MIC (E. coli E1 (NDM-1))?
**A.** 13.3 ± 3.77 µg/mL (≈ 34.8 µM)

**Q.** And the MIC (E. coli E4 (NDM-5))?
**A.** 53.3 ± 15.1 µg/mL (≈ 139 µM)

**Q.** What about the MIC [1] of the same compound?
**A.** 128 µg/mL (≈ 334 µM)

**Q.** And the MIC [2]?
**A.** 107 ± 30.2 µg/mL (≈ 278 µM)

**Q.** And the MIC (E. cloacae 20710 (VIM-1))?
**A.** 32 µg/mL (≈ 83.4 µM)

**Q.** And the MIC (E. coli ZJ487 (NDM-1))?
**A.** 32 µg/mL (≈ 83.4 µM)

**Q.** And the MIC [3]?
**A.** 128 µg/mL (≈ 334 µM)

**Q.** And the MIC (E. coli ZC-YN3 (NDM-1))?
**A.** 21.3 ± 7.54 µg/mL (≈ 55.6 µM)

**Q.** What about the MIC [4] of the same compound?
**A.** 64 µg/mL (≈ 167 µM)

**Q.** And the MIC (E. coli 2Z49 (NDM-5))?
**A.** 32 µg/mL (≈ 83.4 µM)

**Q.** What about the MIC (E. coli E2 (NDM-9)) of the same compound?
**A.** 53.3 ± 15.1 µg/mL (≈ 139 µM)

**Q.** What about the MIC (E. coli ZC-YN7 (NDM-9)) of the same compound?
**A.** 13.3 ± 3.77 µg/mL (≈ 34.8 µM)

**Q.** And the MIC (E. coli D3 (NDM-1))?
**A.** 13.3 ± 3.77 µg/mL (≈ 34.8 µM)

— doi:10.1101/2022.01.16.476523v1, “Novel MBLs inhibitors screened from FDA-approved drug library restore the susceptibility of carbapenems to NDM-1-harbouring bacteria” (biorxiv, 2022)
